What was measured:
Assay in all cases: KINOMEscan binding assay
ALK = molecular target: T1, ALK (Homo sapiens, UniProt Q9UM73); conditions: read-out: % Retention on Solid Support
T1 construct: purchased DiscoveRx KINOMEscan
In short: (§1)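 Panel of >400 kinases screened by active-site competition binding, compound at 1 and 10 µM.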

AKT2 = molecular target: T2, AKT2 (Homo sapiens, UniProt P31751); conditions: read-out: % Retention on Solid Support
T2 construct: purchased DiscoveRx KINOMEscan
In short: as §1

TRPM6 = molecular target: T3, TRPM6 (Homo sapiens, UniProt Q9BX84); conditions: 1 µM i-CDK9; read-out: % Retention on Solid Support
T3 construct: purchased DiscoveRx KINOMEscan
In short: as §1

NDR1 = molecular target: T4, NDR1 (Homo sapiens, UniProt Q15208); conditions: read-out: % Retention on Solid Support
T4 construct: purchased DiscoveRx KINOMEscan
T4 sequence (Q15208 whole entry): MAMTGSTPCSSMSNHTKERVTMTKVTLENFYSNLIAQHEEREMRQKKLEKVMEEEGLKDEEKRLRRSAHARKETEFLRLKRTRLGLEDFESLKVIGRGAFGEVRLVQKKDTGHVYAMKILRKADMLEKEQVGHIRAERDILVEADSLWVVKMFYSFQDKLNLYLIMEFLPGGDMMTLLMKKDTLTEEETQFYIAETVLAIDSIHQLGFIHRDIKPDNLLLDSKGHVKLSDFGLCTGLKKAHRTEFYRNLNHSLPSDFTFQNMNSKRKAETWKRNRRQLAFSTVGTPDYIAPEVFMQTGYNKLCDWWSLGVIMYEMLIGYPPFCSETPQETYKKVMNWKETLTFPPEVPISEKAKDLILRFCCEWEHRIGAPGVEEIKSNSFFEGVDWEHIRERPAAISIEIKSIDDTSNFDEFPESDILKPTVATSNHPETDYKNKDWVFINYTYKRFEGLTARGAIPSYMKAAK
In short: as §1

RAF1 = molecular target: T5, RAF1 (Homo sapiens, UniProt P04049); conditions: read-out: % Retention on Solid Support
T5 construct: purchased DiscoveRx KINOMEscan
In short: as §1

EPHA4 = molecular target: T6, EPHA4 (Homo sapiens, UniProt P54764); conditions: read-out: % Retention on Solid Support
T6 construct: purchased DiscoveRx KINOMEscan
In short: as §1

DYRK1B = molecular target: T7, DYRK1B (Homo sapiens, UniProt Q9Y463); conditions: read-out: % Retention on Solid Support
T7 construct: purchased DiscoveRx KINOMEscan
T7 sequence (Q9Y463 whole entry): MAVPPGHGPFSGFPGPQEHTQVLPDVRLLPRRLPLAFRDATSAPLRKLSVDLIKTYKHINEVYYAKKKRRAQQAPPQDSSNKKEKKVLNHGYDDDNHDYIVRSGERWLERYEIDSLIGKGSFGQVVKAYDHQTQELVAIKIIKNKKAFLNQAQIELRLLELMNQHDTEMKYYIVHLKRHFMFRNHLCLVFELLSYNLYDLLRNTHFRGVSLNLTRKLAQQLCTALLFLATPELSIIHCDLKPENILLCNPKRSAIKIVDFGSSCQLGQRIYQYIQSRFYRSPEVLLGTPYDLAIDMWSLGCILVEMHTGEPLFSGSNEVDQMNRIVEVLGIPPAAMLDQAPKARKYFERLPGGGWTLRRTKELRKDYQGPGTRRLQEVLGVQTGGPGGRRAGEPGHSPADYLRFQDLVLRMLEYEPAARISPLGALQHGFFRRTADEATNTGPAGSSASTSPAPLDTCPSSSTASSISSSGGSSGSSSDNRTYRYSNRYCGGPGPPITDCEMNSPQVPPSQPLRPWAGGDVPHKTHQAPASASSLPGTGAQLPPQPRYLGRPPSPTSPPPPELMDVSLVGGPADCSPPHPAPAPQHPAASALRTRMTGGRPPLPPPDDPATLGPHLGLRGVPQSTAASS
In short: as §1

YANK2 = molecular target: T8, YANK2 (Homo sapiens, UniProt Q9NY57); conditions: read-out: % Retention on Solid Support
T8 construct: purchased DiscoveRx KINOMEscan
T8 sequence (Q9NY57 whole entry): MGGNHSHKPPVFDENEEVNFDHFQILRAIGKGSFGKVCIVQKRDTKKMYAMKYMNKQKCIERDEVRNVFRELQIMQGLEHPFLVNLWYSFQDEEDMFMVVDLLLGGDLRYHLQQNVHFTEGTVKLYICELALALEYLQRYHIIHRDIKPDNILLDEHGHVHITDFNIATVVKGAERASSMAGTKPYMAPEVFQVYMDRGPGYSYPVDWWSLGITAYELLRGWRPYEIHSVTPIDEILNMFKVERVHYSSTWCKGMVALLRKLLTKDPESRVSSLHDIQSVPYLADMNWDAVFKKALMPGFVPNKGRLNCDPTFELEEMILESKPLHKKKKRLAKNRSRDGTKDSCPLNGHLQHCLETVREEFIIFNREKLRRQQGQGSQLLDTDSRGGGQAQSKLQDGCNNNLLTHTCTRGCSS
In short: as §1

[1] = molecular target: T9, ABL1(T315I)-nonphosphorylated (Homo sapiens, UniProt P00519, T315I); conditions: read-out: % Retention on Solid Support
T9 construct: purchased DiscoveRx KINOMEscan
In short: as §1

MET(M1250T) = molecular target: T10, MET(M1250T) (Homo sapiens, UniProt P08581, M1250T)
T10 construct: purchased DiscoveRx KINOMEscan
In short: as §1

[2] = molecular target: T11, RSK3(Kin.Dom.2-C-terminal) (Homo sapiens, UniProt Q15349); conditions: read-out: % Retention on Solid Support
T11 construct: RSK3(Kin.Dom.2-C-terminal); purchased DiscoveRx KINOMEscan
In short: as §1

CAMK1D = molecular target: T12, CAMK1D (Homo sapiens, UniProt Q8IU85); conditions: read-out: % Retention on Solid Support
T12 construct: purchased DiscoveRx KINOMEscan
In short: as §1

ABL2 = molecular target: T13, ABL2 (Homo sapiens, UniProt P42684); conditions: read-out: % Retention on Solid Support
T13 construct: purchased DiscoveRx KINOMEscan
In short: as §1

[3] = molecular target: T14, ABL1(T315I)-phosphorylated (Homo sapiens, UniProt P00519, T315I); conditions: 1 µM i-CDK9; read-out: % Retention on Solid Support
T14 construct: purchased DiscoveRx KINOMEscan
In short: as §1

DRAK1 = molecular target: T15, DRAK1 (Homo sapiens, UniProt Q9UEE5); conditions: read-out: % Retention on Solid Support
T15 construct: purchased DiscoveRx KINOMEscan
T15 sequence (Q9UEE5 whole entry): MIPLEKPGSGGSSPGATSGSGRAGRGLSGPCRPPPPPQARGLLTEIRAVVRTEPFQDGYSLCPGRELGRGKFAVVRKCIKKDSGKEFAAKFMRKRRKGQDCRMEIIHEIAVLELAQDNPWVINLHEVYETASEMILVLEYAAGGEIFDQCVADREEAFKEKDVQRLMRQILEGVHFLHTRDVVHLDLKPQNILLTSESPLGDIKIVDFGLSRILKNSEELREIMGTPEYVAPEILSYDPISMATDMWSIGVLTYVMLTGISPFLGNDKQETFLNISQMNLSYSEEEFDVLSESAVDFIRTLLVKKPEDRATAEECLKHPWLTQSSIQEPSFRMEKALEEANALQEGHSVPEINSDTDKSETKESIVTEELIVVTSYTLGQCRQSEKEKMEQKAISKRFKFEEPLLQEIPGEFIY
In short: as §1

TIE2 = molecular target: T16, TIE2 (Homo sapiens, UniProt Q02763); conditions: read-out: % Retention on Solid Support
T16 construct: purchased DiscoveRx KINOMEscan
In short: as §1

HIPK3 = molecular target: T17, HIPK3 (Homo sapiens, UniProt Q9H422); conditions: read-out: % Retention on Solid Support
T17 construct: purchased DiscoveRx KINOMEscan
In short: as §1

PIM1 = molecular target: T18, PIM1 (Homo sapiens, UniProt P11309); conditions: read-out: % Retention on Solid Support
T18 construct: purchased DiscoveRx KINOMEscan
In short: as §1

MAPKAPK2 = molecular target: T19, MAPKAPK2 (Homo sapiens, UniProt P49137); conditions: read-out: % Retention on Solid Support
T19 construct: purchased DiscoveRx KINOMEscan
In short: as §1

TNK1 = molecular target: T20, TNK1 (Homo sapiens, UniProt Q13470); conditions: read-out: % Retention on Solid Support
T20 construct: purchased DiscoveRx KINOMEscan
In short: as §1

STK39 = molecular target: T21, STK39 (Homo sapiens, UniProt Q9UEW8); conditions: read-out: % Retention on Solid Support
T21 construct: purchased DiscoveRx KINOMEscan
In short: as §1

PIK4CB = molecular target: T22, PIK4CB (Homo sapiens, UniProt Q9UBF8); conditions: read-out: % Retention on Solid Support
T22 construct: purchased DiscoveRx KINOMEscan
T22 sequence (Q9UBF8 whole entry): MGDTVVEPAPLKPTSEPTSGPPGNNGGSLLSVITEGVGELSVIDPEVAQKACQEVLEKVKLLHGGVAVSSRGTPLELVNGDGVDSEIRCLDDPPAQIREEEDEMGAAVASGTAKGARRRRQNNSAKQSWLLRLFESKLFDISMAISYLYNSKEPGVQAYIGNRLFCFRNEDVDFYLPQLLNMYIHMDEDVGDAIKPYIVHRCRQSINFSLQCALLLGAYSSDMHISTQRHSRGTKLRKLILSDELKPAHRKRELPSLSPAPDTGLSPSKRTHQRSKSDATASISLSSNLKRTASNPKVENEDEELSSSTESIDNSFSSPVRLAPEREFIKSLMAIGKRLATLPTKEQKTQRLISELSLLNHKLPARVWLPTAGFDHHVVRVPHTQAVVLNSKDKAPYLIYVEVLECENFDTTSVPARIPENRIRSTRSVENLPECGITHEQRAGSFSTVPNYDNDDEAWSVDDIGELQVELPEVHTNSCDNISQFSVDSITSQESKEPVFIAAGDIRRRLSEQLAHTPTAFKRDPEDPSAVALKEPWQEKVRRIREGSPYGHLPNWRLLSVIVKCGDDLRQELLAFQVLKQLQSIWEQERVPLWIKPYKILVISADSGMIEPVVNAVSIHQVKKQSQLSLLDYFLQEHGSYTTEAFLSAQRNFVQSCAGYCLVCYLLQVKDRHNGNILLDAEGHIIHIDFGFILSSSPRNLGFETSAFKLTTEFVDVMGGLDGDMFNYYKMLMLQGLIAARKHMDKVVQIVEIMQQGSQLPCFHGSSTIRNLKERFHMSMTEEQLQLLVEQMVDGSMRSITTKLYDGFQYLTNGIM
In short: as §1

FLT3(R834Q) = molecular target: T23, FLT3(R834Q) (Homo sapiens, UniProt P36888, R834Q); conditions: 1 µM i-CDK9; read-out: % Retention on Solid Support
T23 construct: purchased DiscoveRx KINOMEscan
In short: as §1

LYN = molecular target: T24, LYN (Homo sapiens, UniProt P07948); conditions: read-out: % Retention on Solid Support
T24 construct: purchased DiscoveRx KINOMEscan
In short: as §1

AMPK-alpha2 = molecular target: T25, AMPK-alpha2 (Homo sapiens, UniProt P54646); conditions: read-out: % Retention on Solid Support
T25 construct: purchased DiscoveRx KINOMEscan
In short: as §1

NEK1 = molecular target: T26, NEK1 (Homo sapiens, UniProt Q96PY6); conditions: read-out: % Retention on Solid Support
T26 construct: purchased DiscoveRx KINOMEscan
In short: as §1

MAP3K1 = molecular target: T27, MAP3K1 (Homo sapiens, UniProt Q13233); conditions: read-out: % Retention on Solid Support
T27 construct: purchased DiscoveRx KINOMEscan
In short: as §1

[4] = molecular target: T28, RSK1(Kin.Dom.1-N-terminal) (Homo sapiens, UniProt Q15418); conditions: read-out: % Retention on Solid Support
T28 construct: RSK1(Kin.Dom.1-N-terminal); purchased DiscoveRx KINOMEscan
In short: as §1

EPHA8 = molecular target: T29, EPHA8 (Homo sapiens, UniProt P29322); conditions: read-out: % Retention on Solid Support
T29 construct: purchased DiscoveRx KINOMEscan
In short: as §1

T2 sequence (P31751 whole entry): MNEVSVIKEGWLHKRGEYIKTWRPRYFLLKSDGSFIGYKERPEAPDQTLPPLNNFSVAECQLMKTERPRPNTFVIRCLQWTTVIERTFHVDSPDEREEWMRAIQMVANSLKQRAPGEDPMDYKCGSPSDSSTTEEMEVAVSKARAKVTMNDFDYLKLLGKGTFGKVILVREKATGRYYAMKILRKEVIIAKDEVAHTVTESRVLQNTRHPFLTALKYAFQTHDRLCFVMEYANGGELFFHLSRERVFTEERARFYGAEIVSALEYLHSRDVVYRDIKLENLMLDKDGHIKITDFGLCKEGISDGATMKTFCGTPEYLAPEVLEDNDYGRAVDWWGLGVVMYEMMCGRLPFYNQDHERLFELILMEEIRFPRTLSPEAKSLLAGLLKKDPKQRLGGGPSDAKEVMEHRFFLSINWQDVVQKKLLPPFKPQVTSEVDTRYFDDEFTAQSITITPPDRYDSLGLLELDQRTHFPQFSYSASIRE
T1 sequence (Q9UM73 19-1620): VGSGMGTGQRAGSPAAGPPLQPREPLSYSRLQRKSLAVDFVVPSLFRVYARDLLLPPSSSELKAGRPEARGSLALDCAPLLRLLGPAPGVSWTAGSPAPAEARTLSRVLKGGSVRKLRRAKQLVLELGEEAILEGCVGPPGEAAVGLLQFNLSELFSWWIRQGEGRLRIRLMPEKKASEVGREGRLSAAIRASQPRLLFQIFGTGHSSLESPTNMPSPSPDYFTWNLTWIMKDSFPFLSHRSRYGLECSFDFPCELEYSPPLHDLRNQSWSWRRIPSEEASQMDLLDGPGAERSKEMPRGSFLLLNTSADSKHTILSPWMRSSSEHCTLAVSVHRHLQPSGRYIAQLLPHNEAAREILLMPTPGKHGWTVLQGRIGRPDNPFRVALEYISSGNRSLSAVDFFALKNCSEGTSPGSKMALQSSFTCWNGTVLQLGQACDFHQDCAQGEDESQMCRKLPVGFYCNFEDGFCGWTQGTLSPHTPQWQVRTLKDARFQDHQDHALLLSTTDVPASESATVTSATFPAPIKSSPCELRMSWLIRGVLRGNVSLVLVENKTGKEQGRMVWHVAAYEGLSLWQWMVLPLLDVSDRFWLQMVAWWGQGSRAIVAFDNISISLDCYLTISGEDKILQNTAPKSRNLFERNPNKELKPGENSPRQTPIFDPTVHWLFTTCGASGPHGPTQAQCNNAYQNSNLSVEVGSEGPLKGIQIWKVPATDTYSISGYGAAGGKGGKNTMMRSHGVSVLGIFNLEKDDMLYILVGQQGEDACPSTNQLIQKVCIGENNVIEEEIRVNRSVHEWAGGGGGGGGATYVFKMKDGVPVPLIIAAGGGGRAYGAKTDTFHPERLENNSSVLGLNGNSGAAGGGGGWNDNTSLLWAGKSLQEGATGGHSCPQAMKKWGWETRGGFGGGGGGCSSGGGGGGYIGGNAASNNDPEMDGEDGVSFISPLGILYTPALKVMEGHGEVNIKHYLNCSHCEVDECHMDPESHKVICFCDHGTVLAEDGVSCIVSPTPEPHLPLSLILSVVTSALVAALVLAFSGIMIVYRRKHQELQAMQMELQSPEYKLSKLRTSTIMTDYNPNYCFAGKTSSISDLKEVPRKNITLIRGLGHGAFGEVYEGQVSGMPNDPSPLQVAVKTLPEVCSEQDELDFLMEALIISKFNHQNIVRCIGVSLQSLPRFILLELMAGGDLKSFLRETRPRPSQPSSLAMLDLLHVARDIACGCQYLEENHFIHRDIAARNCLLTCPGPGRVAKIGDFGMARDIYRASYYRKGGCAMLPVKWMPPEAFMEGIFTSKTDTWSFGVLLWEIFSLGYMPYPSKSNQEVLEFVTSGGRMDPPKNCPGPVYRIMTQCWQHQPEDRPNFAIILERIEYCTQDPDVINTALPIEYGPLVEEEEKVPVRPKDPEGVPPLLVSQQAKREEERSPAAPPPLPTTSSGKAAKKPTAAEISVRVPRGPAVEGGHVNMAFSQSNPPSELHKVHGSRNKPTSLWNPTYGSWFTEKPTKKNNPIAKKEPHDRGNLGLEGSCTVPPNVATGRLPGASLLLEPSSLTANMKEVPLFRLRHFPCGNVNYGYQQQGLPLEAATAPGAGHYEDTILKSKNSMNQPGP

N[C@H]1CC[C@H](Nc2cc(-c3cccc(NCc4cccc(F)c4)n3)c(Cl)cn2)CC1 [i-CDK9, N2′-(trans-4-aminocyclohexyl)-5′-chloro-N6-(3-fluorobenzyl)-2,4′-bipyridine-2′,6-diamine]
remaining binding at 1 µM (ALK; 1 µM i-CDK9): 86% | remaining binding at 10 µM (ALK; 10 µM i-CDK9): 70% | remaining binding at 1 µM (AKT2; 1 µM i-CDK9): 89% | remaining binding at 10 µM (AKT2; 10 µM i-CDK9): 77% | remaining binding at 1 µM (TRPM6): 92% | remaining binding at 1 µM (NDR1; 1 µM i-CDK9): 100% | remaining binding at 10 µM (NDR1; 10 µM i-CDK9): 88% | remaining binding at 1 µM (RAF1; 1 µM i-CDK9): 100% | remaining binding at 10 µM (RAF1; 10 µM i-CDK9): 100% | remaining binding at 1 µM (EPHA4; 1 µM i-CDK9): 100% | remaining binding at 10 µM (EPHA4; 10 µM i-CDK9): 89% | remaining binding at 1 µM (DYRK1B; 1 µM i-CDK9): 0.95% | remaining binding at 10 µM (DYRK1B; 10 µM i-CDK9): 0.7% | remaining binding at 1 µM (YANK2; 1 µM i-CDK9): 90% | remaining binding at 10 µM (YANK2; 10 µM i-CDK9): 100% | remaining binding at 1 µM ([1]; 1 µM i-CDK9): 100% | remaining binding at 10 µM ([1]; 10 µM i-CDK9): 83% | % Retention on Solid Support (MET(M1250T); 1 µM i-CDK9): 86% | % Retention on Solid Support (MET(M1250T); 10 µM i-CDK9): 100% | remaining binding at 1 µM ([2]; 1 µM i-CDK9): 73% | remaining binding at 10 µM ([2]; 10 µM i-CDK9): 100% | remaining binding at 1 µM (CAMK1D; 1 µM i-CDK9): 100% | remaining binding at 10 µM (CAMK1D; 10 µM i-CDK9): 100% | remaining binding at 1 µM (ABL2; 1 µM i-CDK9): 100% | remaining binding at 10 µM (ABL2; 10 µM i-CDK9): 100% | remaining binding at 1 µM [3]: 100% | remaining binding at 1 µM (DRAK1; 1 µM i-CDK9): 90% | remaining binding at 10 µM (DRAK1; 10 µM i-CDK9): 48% | remaining binding at 1 µM (TIE2; 1 µM i-CDK9): 82% | remaining binding at 10 µM (TIE2; 10 µM i-CDK9): 100% | remaining binding at 1 µM (HIPK3; 1 µM i-CDK9): 100% | remaining binding at 10 µM (HIPK3; 10 µM i-CDK9): 89% | remaining binding at 1 µM (PIM1; 1 µM i-CDK9): 100% | remaining binding at 10 µM (PIM1; 10 µM i-CDK9): 23% | remaining binding at 1 µM (MAPKAPK2; 1 µM i-CDK9): 100% | remaining binding at 10 µM (MAPKAPK2; 10 µM i-CDK9): 100% | remaining binding at 1 µM (TNK1; 1 µM i-CDK9): 100% | remaining binding at 10 µM (TNK1; 10 µM i-CDK9): 65% | remaining binding at 1 µM (STK39; 1 µM i-CDK9): 100% | remaining binding at 10 µM (STK39; 10 µM i-CDK9): 77% | remaining binding at 1 µM (PIK4CB; 1 µM i-CDK9): 29% | remaining binding at 10 µM (PIK4CB; 10 µM i-CDK9): 84% | remaining binding at 1 µM (FLT3(R834Q)): 36% | remaining binding at 1 µM (LYN; 1 µM i-CDK9): 100% | remaining binding at 10 µM (LYN; 10 µM i-CDK9): 81% | remaining binding at 1 µM (AMPK-alpha2; 1 µM i-CDK9): 83% | remaining binding at 10 µM (AMPK-alpha2; 10 µM i-CDK9): 88% | remaining binding at 1 µM (NEK1; 1 µM i-CDK9): 70% | remaining binding at 10 µM (NEK1; 10 µM i-CDK9): 100% | remaining binding at 1 µM (MAP3K1; 1 µM i-CDK9): 93% | remaining binding at 10 µM (MAP3K1; 10 µM i-CDK9): 100% | remaining binding at 1 µM ([4]; 1 µM i-CDK9): 100% | remaining binding at 10 µM ([4]; 10 µM i-CDK9): 82% | remaining binding at 1 µM (EPHA8; 1 µM i-CDK9): 100% | remaining binding at 10 µM (EPHA8; 10 µM i-CDK9): 100%
